Measured values: US20090203577A1 (EXELIXIS, INC., priority 2005, published 2009)
pEC50: −log10 of the molar value.

Target: T1, human farnesoid X receptor (Homo sapiens, UniProt Q96RI1)
T1 construct: CMX-farnesoid X receptor (full length human farnesoid X receptor); expressed in transfected cells; host or cells: CV-1 African Green Monkey Kidney cells
T1 sequence (Q96RI1 1-472 isoform Q96RI1-2): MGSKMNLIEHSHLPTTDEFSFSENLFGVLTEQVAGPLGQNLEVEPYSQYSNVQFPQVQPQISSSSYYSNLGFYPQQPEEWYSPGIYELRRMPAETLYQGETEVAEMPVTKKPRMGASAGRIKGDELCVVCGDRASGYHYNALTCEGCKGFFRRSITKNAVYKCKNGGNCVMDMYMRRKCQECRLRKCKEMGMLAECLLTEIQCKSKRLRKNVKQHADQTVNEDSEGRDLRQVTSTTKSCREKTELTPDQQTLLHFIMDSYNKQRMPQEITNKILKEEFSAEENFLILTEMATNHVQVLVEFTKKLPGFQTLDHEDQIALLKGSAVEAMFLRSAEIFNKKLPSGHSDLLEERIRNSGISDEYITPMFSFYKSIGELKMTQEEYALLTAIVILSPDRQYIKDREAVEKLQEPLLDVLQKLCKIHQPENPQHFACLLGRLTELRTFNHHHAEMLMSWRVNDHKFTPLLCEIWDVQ
T1 sequence (P19793 1-462 partner): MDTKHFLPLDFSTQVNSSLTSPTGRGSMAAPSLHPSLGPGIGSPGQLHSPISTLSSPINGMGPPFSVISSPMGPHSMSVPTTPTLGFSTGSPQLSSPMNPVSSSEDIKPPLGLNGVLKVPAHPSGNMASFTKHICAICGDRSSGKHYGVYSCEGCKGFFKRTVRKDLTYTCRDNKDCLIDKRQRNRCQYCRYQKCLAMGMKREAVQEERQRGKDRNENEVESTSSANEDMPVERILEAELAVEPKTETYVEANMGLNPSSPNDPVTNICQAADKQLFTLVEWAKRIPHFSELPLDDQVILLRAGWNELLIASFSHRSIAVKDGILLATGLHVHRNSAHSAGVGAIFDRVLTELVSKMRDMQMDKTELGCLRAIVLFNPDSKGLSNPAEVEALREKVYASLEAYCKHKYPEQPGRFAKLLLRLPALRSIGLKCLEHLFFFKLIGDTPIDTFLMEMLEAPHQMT
Test: FXR in vitro assays (farnesoid X receptor/ECREx7 co-transfection assay, TR-FRET assay), Table I
Assay type: cell-based
Conditions: for pEC50: agonist activity, one or more of the in vitro assays, read-out: EC50; for Emax: read-out: % Efficacy
Protocol: The basic co-transfection protocol for measuring the farnesoid X receptor activity is as follows. CV-1 African Green Monkey Kidney cells were plated 24 hours before transfection to achieve approximately 70-80 percent confluency. […] The assay was allowed to continue for an additional 18-20 hours, after which the cells were lysed, with lysis buffer (1% triton X 100, 10% glycerol, 5 mM Dithiothreitol, 1 mM EGTA, 25 mM Tricine, pH 7.8) and the luciferase activity measured in the presence of Luciferase assay buffer (0.73 mM ATP, 22.3 mm Tricine, 0.11 mM EGTA, 0.55 mM Luciferin, 0.15 mM Coenzyme A, 0.5 mM HEPES, 10 mM Magnesium sulphatc) on a standard luminometer plate reader (PE Biosystems, NorthStar Reader), using recommended operating instructions and conditions.
The dose response curves are generated from an 8 point curve with concentrations differing by ½ LOG units. Each point represents the average of 4 wells of data from a 384 well plate. A curve for the data is generated by using the equation:
Y=Bottom+(Top−Bottom)/(1+10̂((Log EC50−X)*HillSlope))
The EC50/IC50 is therefore defined as the concentration at which an agonist or antagonist elicits a response that is half way between the Top (maximum) and Bottom (baseline) values. The EC50/IC50 values represented are the averages of at least 3 independent experiments.

CC(C)OC(=O)C1=CN(C(=O)C2CCCCC2)CC(C)(C)c2c1[nH]c1ccccc21 [Example 1, 1-Methylethyl 1,1-Dimethyl-1,2,3,6-Tetrahydroazepino [4,5-b]Indole-5-CarboxylateE]
pEC50: 7.00 to 8.00
Emax: > 100%

CC(C)OC(=O)C1=CN(C(=O)C2CCCCCC2)CC(C)(C)c2c1[nH]c1ccccc21 [Example 12, 1-Methylethyl 3-[(3,4-Difluorophenyl)Carbonyl]-8-[(f{[2-(Dimethylamino)Ethyl]amino}Carbonyl)Oxy]-1,1-Dimethyl-1,2,3,6-tetrahydroazepino[4,5-b]Indole-5-Carboxylate]
pEC50: 7.00 to 8.00
Emax: > 100%

CC(C)OC(=O)C1=CN(C(=O)CCCN(C)C)CC(C)(C)c2c1[nH]c1ccccc21 [Example 20]
pEC50: 5.00 to 6.00

CC(=O)C1=CNCC(C)(C)c2c1[nH]c1ccccc21 [Example 21]
pEC50: 5.00 to 6.00

CC(C)OC(=O)C1=CN(C(=O)NCCN2CCOCC2)CC(C)(C)c2c1[nH]c1ccccc21 [Example 22, 1-methylethyl 1,1-dimethyl-3-{[(2-morpholin-4-ylethyl)amino]carbonyl}-1,2,3,6-tetrahydroazepino[4,5-b]indole-5-carboxylate]
pEC50: 5.00 to 6.00

CC(C)OC(=O)C1=CN(C(=O)C23C[C@H]4C[C@@H](C2)C[C@@H](C3)C4)CC(C)(C)c2c1[nH]c1ccccc21 [Example 24, 1-methylethyl 1,1-dimethyl-3-[(3s,5s,7s)-tricyclo[3.3.1.1~3,7~]dec-1-ylcarbonyl]-1,2,3,6-tetrahydroazepino [4,5-b]indole-5-carboxylate]
pEC50: 7.00 to 8.00
Emax: > 100%

CCN(CC)CCN(CC)C(=O)N1C=C(C(=O)OC(C)C)c2[nH]c3ccccc3c2C(C)(C)C1 [Example 27, 1-methylethyl 3-({[2-(diethylamino)ethyl](ethyl)amino}carbonyl)-1,1-dimethyl-1,2,3,6-tetrahydro azepino [4,5-b]indole-5-carboxylate]
pEC50: 5.00 to 6.00

CC(C)OC(=O)C1=CN(C(=O)N2CCN(C)CC2)CC(C)(C)c2c1[nH]c1ccc(F)cc21 [Example 32, 1-methylethyl 9-fluoro-1,1-dimethyl-3-[(4-methylpiperazin-1-yl)carbonyl]-1,2,3,6-tetrahydroazepino[4,5-b]indole-5-carboxylate]
pEC50: 6.00 to 7.00
Emax: > 100%

CC(C)OC(=O)C1=CN(C(=O)N2CCCCCC2)CC(C)(C)c2c1[nH]c1ccccc21 [Example 40, 1-methylethyl 3-(azepan-1-ylcarbonyl)-1,1-dimethyl-1,2,3,6-tetrahydroazepino [4,5-b]indole-5-carboxylate]
pEC50: 8.00 to 9.00
Emax: > 100%

CC(C)OC(=O)C1=CN(C(=O)NC2CCCC2)CC(C)(C)c2c1[nH]c1ccccc21 [Example 44, 1-methylethyl 3-[(cyclopentylamino)carbonyl]-1,1-dimethyl-1,2,3,6-tetrahydroazepino[4,5-b]indole-5-carboxylate]
pEC50: 7.00 to 8.00
Emax: > 100%

CC(C)OC(=O)C1=CN(C(=O)NC2CCCCCC2)CC(C)(C)c2c1[nH]c1ccccc21 [Example 46, 1-methylethyl 3-[(cycloheptylamino)carbonyl]-1,1-dimethyl-1,2,3,6-tetrahydroazepino[4,5-b]indole-5-carboxylate]
pEC50: 7.00 to 8.00
Emax: > 100%

CC(C)OC(=O)C1=CN(C(=O)NCc2ccccc2)CC(C)(C)c2c1[nH]c1ccccc21 [Example 49, 1-methylethyl 1,1-dimethyl-3-{[(phenylmethyl)amino]carbonyl}-1,2,3,6-tetrahydroazepino[4,5-b]indole-5-carboxylate]
pEC50: 5.00 to 6.00
Emax: 80 to 100%

CCN(CC)C(=O)N1C=C(C(=O)OC(C)C)c2[nH]c3ccccc3c2C(C)(C)C1 [Example 52, 1-methylethyl 3-[(diethylamino)carbonyl]-1,1-dimethyl-1,2,3,6-tetrahydroazepino[4,5-b]indole-5-carboxylate]
pEC50: 7.00 to 8.00
Emax: > 100%

CC(C)OC(=O)C1=CN(C(=O)N2CCCC(COCCCN(C)C)C2)CC(C)(C)c2c1[nH]c1ccccc21 (centres unmarked) [Example 55, 1-methylethyl 3-{[3-({[3-(dimethylamino)propyl]oxy}methyl)piperidin-1-yl]carbonyl}-1,1-dimethyl-1,2,3,6-tetrahydroazepino[4,5-b]indole-5-carboxylate]
pEC50: 5.00 to 6.00

CC(C)OC(=O)C1=CN(C(=O)N2CCCN(Cc3ccccc3)CC2)CC(C)(C)c2c1[nH]c1ccccc21 [Example 59, 1-methylethyl 1,1-dimethyl-3-{[4-(phenylmethyl)-1,4-diazepan-1-yl]carbonyl}-1,2,3,6-tetrahydroazepino [4,5-b]indole-5-carboxylate]
pEC50: 7.00 to 8.00
Emax: > 100%

CC(C)OC(=O)C1=CN(C(=O)c2c(F)ccc(F)c2Cl)CC(C)(C)c2c1[nH]c1ccccc21 [Example 61, 1-methylethyl 3-[(2-chloro-3,6-difluorophenyl)carbonyl]-1,1-dimethyl-1,2,3,6-tetrahydroazepino[4,5-b]indole-5-carboxylate]
pEC50: 7.00 to 8.00
Emax: > 100%

CC(C)OC(=O)C1=CN(C(=O)c2ccccc2)CC(C)(C)c2c1[nH]c1ccccc21 [Example 62, 1-methylethyl 1,1-dimethyl-3-(phenylcarbonyl)-1,2,3,6-tetrahydroazepino[4,5-b]indole-5-carboxylate]
pEC50: 8.00 to 9.00
Emax: > 100%

CC(C)OC(=O)C1=CN(C(=O)c2ccccc2F)CC(C)(C)c2c1[nH]c1ccccc21 [Example 63, 1-methylethyl 3-[(2-fluorophenyl)carbonyl]-1,1-dimethyl-1,2,3,6-tetrahydroazepino[4,5-b]indole-5-carboxylate]
pEC50: 7.00 to 8.00
Emax: > 100%

CC(C)OC(=O)C1=CN(C(=O)c2ccccc2Cl)CC(C)(C)c2c1[nH]c1ccccc21 [Example 66, 1-methylethyl 3-[(2-chlorophenyl)carbonyl]-1,1-dimethyl-1,2,3,6-tetrahydroazepino[4,5-b]indole-5-carboxylate]
pEC50: 8.00 to 9.00
Emax: > 100%

Cc1ccccc1C(=O)N1C=C(C(=O)OC(C)C)c2[nH]c3ccccc3c2C(C)(C)C1 [Example 68, 1-methylethyl 1,1-dimethyl-3-[(2-methylphenyl)carbonyl]-1,2,3,6-tetrahydroazepino[4,5-b]indole-5-carboxylate]
pEC50: 7.00 to 8.00
Emax: > 100%

COc1ccccc1C(=O)N1C=C(C(=O)OC(C)C)c2[nH]c3ccccc3c2C(C)(C)C1 [Example 69, 1-methylethyl 1,1-dimethyl-3-{[2-(methyloxy)phenyl]carbonyl}-1,2,3,6-tetrahydroazepino[4,5-b]indole-5-carboxylate]
pEC50: 7.00 to 8.00
Emax: > 100%

CC(C)OC(=O)C1=CN(C(=O)c2ccc(F)cc2F)CC(C)(C)c2c1[nH]c1ccccc21 [Example 73, 1-methylethyl 3-[(2,4-difluorophenyl)carbonyl]-1,1-dimethyl-1,2,3,6-tetrahydroazepino[4,5-b]indole-5-carboxylate]
pEC50: 8.00 to 9.00
Emax: > 100%

CC(C)OC(=O)C1=CN(C(=O)c2cccc(F)c2F)CC(C)(C)c2c1[nH]c1ccccc21 [Example 74, 1-methylethyl 3-[(2,3-difluorophenyl)carbonyl]-1,1-dimethyl-1,2,3,6-tetrahydroazepino[4,5-b]indole-5-carboxylate]
pEC50: 8.00 to 9.00
Emax: > 100%
